Laboratory results reported in patent US6630125B2, “18F-labeled choline analogs” (priority 2000, dated 2003).

Legend:
[1] = test system: patients with prostate cancer; test: PET imaging in patients with prostate cancer; conditions: human, in vivo
Procedure: The distribution of FCH in PET imaging studies was evaluated in 14 patients with prostate cancer, 14 patients with breast cancer, and 5 patients with brain tumors. Imaging was performed using the Advance PET scanner (GE Medical Systems, Milwaukee, Wis.). […] In prostate cancer patients, a transmission scan of the pelvic region was obtained before administration of radiotracer. FCH (2.5-5 mCi) was administered intravenously, and dynamic imaging of the pelvis region was commenced for 20-30 min. During image reconstruction, the emission data in the pelvic region were corrected for photon attenuation using the transmission scan. Immediately following the dynamic scan, a whole-body emission scan was performed without transmission scanning for attenuation correction. The images were reconstructed using an Ordered Subset Expectation Maximum (OS-EM) algorithm. Regions-of-interest were drawn manually on the attenuation corrected images for evaluation of FCH kinetics in tissues. Standardized uptake values of FCH uptake in tissues were calculated using the attenuation-corrected images according to the equation: [formula]
Patient 2: Transmission and FCH emission scans of a person with hormone naive clinical stage T2 prostate cancer were commenced over the lower pelvis.
The same patient was scanned with FDG within the same week (FIG. 8).
Patient 4: A person with a history of clinical stage T3b prostate cancer treated by radical retropubic prostatectomy was diagnosed with metastatic disease by bone scan. FCH-PET imaging was performed before and after initiating androgen deprivation therapy. In the first study, whole-body emission scanning was started 5 min after injection, beginning at the pelvic region in order to image the pelvis and prostatic bed before arrival of urinary radioactivity. […] The patient was rescanned 2 weeks after initiating androgen deprivation therapy.
Patient 5: A person was initially diagnosed five years prior with locally advanced clinical stage T3NOMO prostate cancer and underwent radical prostatectomy followed by external beam radiation to the prostate bed. […] The patient was then treated with Zolex and Casodex.

[2] = test system: PC-3 prostate cancer cells; test: Analysis of radiolabeled metabolites in PC-3 prostate cancer cells; format: cell-based, human
Procedure: The primary hydrophilic metabolites of choline in mammals is phosphocholine and betaine. […] The HPLC system used a microprocessor-controlled solvent delivery system and a silica column (Adsorbosphere Silica (10μ), 250×4.6 mm, Alltech, Deerfield, Ill.). The column was kept at room temperature and the flow rate was maintained at 1.5 ml/min. […] Fractions of effluent were collected every 0.5 min and first counted for ^18F-radioactivity in a well-counter for experiments involving [^18F]FCH, then transferred to scintillation vials for counting for ^14C-radioactivity. The column was equilibrated for 6 min with Buffer A before injection. After the injection (<100 μl), Buffer A was delivered for 6 min which eluted betaine (3 min) from the column. […] Re-equilibration of the column with 100% A for 6 min preceded the next injection.
Methanol (1 ml) was added to each well and the cells were lysed by maintaining the temperature at 37° C. for 30 min. The methanol phase was transferred to a glass test tube. Each well was rinsed with an additional 0.5 ml methanol which was added to the original fraction. To each tube, 3 ml chloroform and 1 ml 0.25 M sodium phosphate (pH=4.5) were added to separate lipids from water-soluble molecules. After vigorous mixing of the samples for 1 min, the two phases were separated, and a 0.5 ml aliquot of each phase was counted for ^18F and ^14C radioactivity. The aqueous phase was further analyzed for water-soluble metabolites using the gradient-HPLC method previously described.
Cells incubated in 6-well plates for 2 hr with radiotracers were thoroughly washed to remove all extracellular radioactivity. The cells were lysed in methanol and the methanol solution added to chloroform to solubilize all lipophilic metabolites.

[3] = molecular target: T1, yeast choline kinase (Saccharomyces cerevisiae, UniProt P20485); test: In vitro phosphorylation by yeast choline kinase; format: biochemical
T1 sequence (P20485 1-582): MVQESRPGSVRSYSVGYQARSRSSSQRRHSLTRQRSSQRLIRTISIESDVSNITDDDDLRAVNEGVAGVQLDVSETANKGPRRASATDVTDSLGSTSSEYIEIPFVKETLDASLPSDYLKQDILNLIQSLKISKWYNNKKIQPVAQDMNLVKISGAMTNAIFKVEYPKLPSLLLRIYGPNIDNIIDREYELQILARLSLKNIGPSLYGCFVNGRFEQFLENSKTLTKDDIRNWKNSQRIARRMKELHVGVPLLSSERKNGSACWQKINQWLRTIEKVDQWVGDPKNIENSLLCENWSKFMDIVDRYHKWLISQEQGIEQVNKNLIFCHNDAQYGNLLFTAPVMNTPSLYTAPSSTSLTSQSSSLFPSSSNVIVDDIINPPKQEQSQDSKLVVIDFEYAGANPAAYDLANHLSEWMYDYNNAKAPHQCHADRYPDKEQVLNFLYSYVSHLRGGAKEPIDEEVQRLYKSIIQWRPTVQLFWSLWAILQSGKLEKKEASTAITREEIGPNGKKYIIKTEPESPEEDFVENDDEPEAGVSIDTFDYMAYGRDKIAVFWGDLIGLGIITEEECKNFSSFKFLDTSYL
Procedure: The test tube was gently agitated throughout the incubation period. The reaction was stopped by placing the tube in a boiling water bath for 2 min. To serve as controls, some samples were placed directly in the boiling water bath after addition of all substrates. […] The percentage of radioactivity converted to the phosphorylated form was calculated.

`C[N+](C)(CF)CCO.[Cl-]` [FCH, dimethylfluoromethyl-2-hydroxyethylammonium chloride] was tested, and the “decrease of SUV in ischial metastasis” value [1] was 68%, the “decrease of SUV in primary tumor” value [1] was 61% and the “decrease of SUVs in the tumors” value [1] was 35-40%. The “SUV in ischial metastasis” value ([1]; male) was 2.4, the “SUV in primary tumor” value ([1]; male) was 3.0 and the “SUV index in osseous lesions” value ([1]; male) was 8.0. For the same molecule, the “SUV values in osseous lesions of the pelvis region” value ([1]; male) was 3.8-8.0, the “injected dose of radioactivity in urine” value ([1]; male) was 1.3% and the “radioactivity concentration in the brain relative to prostate gland or metastasis” value ([1]; male) was < 2%. For the same molecule, the “time of arrival of radioactivity in the urinary bladder / urine” value ([1]; male) was “about 8 min”, the “time to plateau of radioactivity concentration in prostate and metastasis” value ([1]; male) was ≤ 5 min and the “time to plateau of radioactivity concentration in the prostate bed” value ([1]; male) was ≤ 3 min. For the same molecule, the “tracer uptake in osseous lesions, FCH relative to FDG” value ([1]; male) was 2 fold, the “arterial concentration relative to the peak level” value ([1]; male, 2 min) was < 5% and the “SUV of osseous metastasis (left ischium)” value ([1]; male, 5 min) was 7.7. For the same molecule, the “SUV of primary tumor” value ([1]; male, 5 min) was 7.7, the “^18F-labeled species: hydrophilic metabolites, FCH” value ([2]; +HC-3 (5 mM hemicholinium-3)) was 0.04 ± 0.01 percentage of administered dose and the “^18F-labeled species: hydrophilic metabolites, P-FCH” value ([2]; +HC-3 (5 mM hemicholinium-3)) was 0.12 ± 0.03 percentage of administered dose. The “^18F-labeled species: lipophilic metabolites” value ([2]; +HC-3 (5 mM hemicholinium-3)) was 0.01 ± 0.01 percentage of administered dose, the “^18F-labeled species: hydrophilic metabolites, FCH” value ([2]; Control, 2 hr, 37° C.) was 0.29 ± 0.05 percentage of administered dose and the “^18F-labeled species: hydrophilic metabolites, P-FCH” value ([2]; Control, 2 hr, 37° C.) was 7.1 ± 0.9 percentage of administered dose. For the same molecule, the “^18F-labeled species: lipophilic metabolites” value ([2]; Control, 2 hr, 37° C.) was 2.4 ± 0.4 percentage of administered dose, the “incorporation of radioactivity into lipophilic species, FCH relative to [^14C]CH” value ([2]; PC-3 cells, 2 hr) was 5 fold and the “oxidation in the cancer cells (betaine / fluorobetaine by HPLC)” value ([2]; PC-3 cells, 2 hr) was “negligible”. The “share of cell radioactivity found as phosphorylated tracer (phosphorylfluorocholine / phosphocholine)” value ([2]; PC-3 cells, 2 hr) was “Approximately 72%”, the “share of total cell radioactivity as lipophilic metabolites” value ([2]; PC-3 cells, 2 hr) was 25% and the “phosphorylation rate compared with CH” value ([3]; 1 μM choline) was “equivalent to CH”. For the same molecule, the In vitro phosphorylation ([3]; 1 μM choline, 25 mU/ml yeast choline kinase, 23° C., 10 min, n = 5) was 62.0 ± 8.8% and the IC50 ([3]; choline 1-10,000 μM, 25 mU/ml choline kinase, 10 min, 23 C, read-out: apparent IC50 for inhibition of phosphorylation of radiotracer by choline) was ~400 µM.
